Structures can show the parent of a compound that is named as a salt. Where two headings read alike, the source gives them in different places.
Test system: iCell cardiomyocytes (human iPSC-derived cardiomyocytes)
Test: Intracellular Ca2+ flux / beating parameters in iCell cardiomyocytes (FLIPR tetra), 90 min or 24 h
Assay type: cell-based
Details: Homo sapiens, Cardiomyocyte, 0.00 µM = 100.00; for activity at 0.1 µM: 0.10 µM
Procedure: Details on cardiomyocyte cell culture are described in detail elsewhere ([Grimm et al. 2015b]; [Sirenko et al. 2013a]). Briefly, tissue-culture treated 384 well plates were gelatinized with 25μL per well of 0.1% (w/v) gelatin in water for 2 h at 37°C and 5% CO2 . Individual vials of cells were thawed for 4 min in a water bath maintained at 37°C. Thawed cells were resuspended in 10ml plating medium containing 1:500 (vol/vol) penicillin/streptomycin solution at room temperature (RT). Live cell counts for each cell suspension were determined by trypan blue staining and cells were further diluted to provide final cell densities of 2×10^5 viable cells/ml. Thus, 5,000 cells suspended in 25μL media were transferred per well after the gelatin solution had been discarded. Cell culture plates were rested for 30 min at RT before they were incubated for 48 h at 37°C and 5% CO2 . Then, a media exchange with 30μL of fresh maintenance medium containing 1:500 (vol/vol) penicillin/streptomycin solution was performed, and cell media were subsequently changed every 48 h for 12 d. On the experiment day, the medium was completely exchanged with either 25μL (for Ca^2+ flux assay) or 40μL (for imaging) of fresh medium.
Responses of iCell®-cardiomyocytes to drugs and chemicals were evaluated using intracellular Ca^2+ flux measurements ([Grimm et al. 2015b]; [Sirenko et al. 2013b]). For experiments, 20 mM stock solutions of PCBs and PCB metabolites were prepared in DMSO ( 200× ). Chemical working solutions ( 5× ) were prepared using cardiomyocyte maintenance medium and contained 2.5% (vol/vol) DMSO. These chemical master plates were prepared to include all chemicals in concentration–response (0.05, 0.5, 5, 50, and 500μM ). Negative controls included media-only and vehicle control (i.e., 0.5% vol/vol DMSO in cell culture media) wells. Positive assay controls were consistent with previously published reports ([Grimm et al. 2018]) and included TAB ( 50μM ) as a cytotoxic control, and isoproterenol ( 0.1–10μM ), propranolol ( 0.1–5 μM ), cisapride ( 0.01–1μM ), and doxorubicin ( 0.1–5μM ) as chemicals associated with specific effects on beating and ion flux. Each test chemical was screened in triplicate for each concentration.
Experiments started with the addition of 25μL of prewarmed 2× concentrated calcium dye reagent to sample wells containing 25μL maintenance media. Microplates were then acclimated for 2 h at 37°C. Following equilibration, cardiomyocyte sample wells were treated simultaneously by the addition of 12.5μL of prewarmed 5× chemical solution to iCell®-cardiomyocytes using the automated liquid handler in the FLIPR tetra (Molecular Devices). Treated cell cultures were incubated for either 90 min or 24 h. After the conclusion of the treatment period, the Ca^2+ flux was measured for 100 s at a frequency of 8 Hz using the integrated fluorescence plate reader in the FLIPR tetra (Molecular Devices) using an emission wavelength range of λemission=515–575 nm ( λexcitation=470–495 nm ). Additional instrument settings included exposure time per read of 0.05s, a gain of 2000, an excitation intensity of 30%, and an internal temperature of 37°C.
Ca^2+ flux data were processed in R studio (version 1.0.136, with R version 3.3.2; R Development Core Team) as described elsewhere ([Blanchette et al. 2019]; [Burnett et al. 2019]). Calculated quantitative metrics included the means and coefficients of variation (CV) of the peak height, which can be indicative of cytotoxicity, inhibition, or stimulation of beating. Means of peak frequency, an indicator of positive or negative […], and CV of peak spacing, an indicator of irregular beating, were also derived from Ca^2+ flux traces. Finally, the mean ratio of the decay over rise time was calculated. Increases in the decay/rise time ratio are reflective of delayed repolarization and are a measure for QT prolongation. […]

[1] = 1.5 h, read-out: cm.amp.avg.90min
[2] = 1.5 h, read-out: cm.amp.cv.90min
[3] = 1.5 h, read-out: cm.decay.rise.90min
[4] = 1.5 h, read-out: cm.spacing.cv.90min
[5] = 24 h, read-out: cm.amp.avg.24hrs
[6] = 24 h, read-out: cm.amp.cv.24hrs
[7] = 24 h, read-out: cm.decay.rise.24hrs
[8] = 24 h, read-out: cm.spacing.cv.24hrs

O=S(=O)(O)Oc1cccc(-c2ccc(Cl)cc2)c1 [3'-yl PCB 3 sulfate] was tested, and the activity at 0.01 µM [1] was 106%, the activity at 0.01 µM [2] was 121% and the activity at 0.01 µM (1.5 h, read-out: cm.bpm.90min) was 96.5%. For the same compound, the activity at 0.01 µM [3] was 95.8%, the activity at 0.01 µM [4] was 108% and the activity at 0.1 µM [1] was 106%. The activity at 0.1 µM [2] was 103%, the activity at 0.1 µM (1.5 h, read-out: cm.bpm.90min) was 100% and the activity at 0.1 µM [3] was 99.3%. For the same compound, the activity at 0.1 µM [4] was 110%, the activity at 1 µM [1] was 111% and the activity at 1 µM [2] was 84.7%. For the same compound, the activity at 1 µM (1.5 h, read-out: cm.bpm.90min) was 99.1%, the activity at 1 µM [3] was 96.2% and the activity at 1 µM [4] was 94.2%. The activity at 10 µM [1] was 109%, the activity at 10 µM [2] was 88.3% and the activity at 10 µM (1.5 h, read-out: cm.bpm.90min) was 100%. It also gave an activity at 10 µM [3] of 95.3%, an activity at 10 µM [4] of 94.3% and an activity at 100 µM [1] of 109%. The activity at 100 µM [2] was 86.7%, the activity at 100 µM (1.5 h, read-out: cm.bpm.90min) was 91.5% and the activity at 100 µM [3] was 99.4%. It also gave an activity at 100 µM [4] of 107%, an activity at 0.01 µM [5] of 79% and an activity at 0.01 µM [6] of 31.6%. The activity at 0.01 µM (24 h, read-out: cm.bpm.24hrs) was 52.5%, the activity at 0.01 µM [7] was 45.2% and the activity at 0.01 µM [8] was 48.7%. The activity at 0.1 µM [5] was 60.9%, the activity at 0.1 µM [6] was 151% and the activity at 0.1 µM (24 h, read-out: cm.bpm.24hrs) was 102%. For the same compound, the activity at 0.1 µM [7] was 90.7%, the activity at 0.1 µM [8] was 98.6% and the activity at 1 µM [5] was 86.6%. It also gave an activity at 1 µM [6] of 96.4%, an activity at 1 µM (24 h, read-out: cm.bpm.24hrs) of 89.7% and an activity at 1 µM [7] of 117%. The activity at 1 µM [8] was 96.2%, the activity at 10 µM [5] was 75% and the activity at 10 µM [6] was 122%. It also gave an activity at 10 µM (24 h, read-out: cm.bpm.24hrs) of 101%, an activity at 10 µM [7] of 98.6% and an activity at 10 µM [8] of 93.8%. For the same compound, the activity at 100 µM [5] was 85%, the activity at 100 µM [6] was 91.8% and the activity at 100 µM (24 h, read-out: cm.bpm.24hrs) was 92.6%. It also gave an activity at 100 µM [7] of 99% and an activity at 100 µM [8] of 87.7%.

O=S(=O)(O)Oc1ccc(-c2ccc(Cl)cc2)cc1 [4'-yl PCB 3 sulfate] showed an activity at 0.01 µM [1] of 91%, an activity at 0.01 µM [2] of 97% and an activity at 0.01 µM (1.5 h, read-out: cm.bpm.90min) of 100%. For the same compound, the activity at 0.01 µM [3] was 100%, the activity at 0.01 µM [4] was 138% and the activity at 0.1 µM [1] was 100%. It also gave an activity at 0.1 µM [2] of 92%, an activity at 0.1 µM (1.5 h, read-out: cm.bpm.90min) of 100% and an activity at 0.1 µM [3] of 98.1%. The activity at 0.1 µM [4] was 107%, the activity at 1 µM [1] was 98% and the activity at 1 µM [2] was 75.3%. It also gave an activity at 1 µM (1.5 h, read-out: cm.bpm.90min) of 100%, an activity at 1 µM [3] of 95.6% and an activity at 1 µM [4] of 90.9%. For the same compound, the activity at 10 µM [1] was 93%, the activity at 10 µM [2] was 105% and the activity at 10 µM (1.5 h, read-out: cm.bpm.90min) was 104%. It also gave an activity at 10 µM [3] of 97.7%, an activity at 10 µM [4] of 104% and an activity at 100 µM [1] of 0%. The activity at 100 µM [2] was 0%, the activity at 100 µM (1.5 h, read-out: cm.bpm.90min) was 0% and the activity at 100 µM [3] was 0%. For the same compound, the activity at 100 µM [4] was 0%, the activity at 0.01 µM [5] was 114% and the activity at 0.01 µM [6] was 86.7%. For the same compound, the activity at 0.01 µM (24 h, read-out: cm.bpm.24hrs) was 102%, the activity at 0.01 µM [7] was 89.3% and the activity at 0.01 µM [8] was 96.8%. The activity at 0.1 µM [5] was 46.3%, the activity at 0.1 µM [6] was 44.4% and the activity at 0.1 µM (24 h, read-out: cm.bpm.24hrs) was 47.7%. For the same compound, the activity at 0.1 µM [7] was 52.8%, the activity at 0.1 µM [8] was 48.2% and the activity at 1 µM [5] was 68%. It also gave an activity at 1 µM [6] of 33.8%, an activity at 1 µM (24 h, read-out: cm.bpm.24hrs) of 46.8% and an activity at 1 µM [7] of 51.1%. The activity at 1 µM [8] was 55.8%, the activity at 10 µM [5] was 89.3% and the activity at 10 µM [6] was 96.4%. For the same compound, the activity at 10 µM (24 h, read-out: cm.bpm.24hrs) was 101%, the activity at 10 µM [7] was 105% and the activity at 10 µM [8] was 108%. The activity at 100 µM [5] was 112%, the activity at 100 µM [6] was 68.8% and the activity at 100 µM (24 h, read-out: cm.bpm.24hrs) was 79.2%. The activity at 100 µM [7] was 113% and the activity at 100 µM [8] was 103%.

Source: article PMC7377239, “Cardiovascular Effects of Polychlorinated Biphenyls and Their Major Metabolites” (Environmental Health Perspectives, 2020)
